# According to patent US10426777B2, “Methods used to treat cancer” (THE TRANSLATIONAL GENOMICS RESEARCH INSTITUTE, priority 2009, dated 2019):
# Experiments:
# T98G and GBM43 cells = test: Clonogenic survival assay with TMZ or radiation; format: cell-based, Human
# Description: (§1) FIGS. 26A-26C depict that PPF sensitizes GBM cells to TMZ and radiotherapy. FIG. 26A—A clonogenic assay was used to assess T98G and GBM43 cells survival after TMZ and radiation treatment. Cells were pre-treated with 5 μM PPF for 24 hours, and then either treated with 250 μM TMZ for 24 hours or exposed to 2 Gy radiation. Graph depicts the surviving fraction in the treated cells compared to vehicle (VC) treated or non-treated (NT) cells, **p<0.01. FIG. 26B—T98G glioma cells were treated with vehicle, PPF (5 μM), TMZ (250 μM), and PPF in combination with TMZ. TMZ-induced apoptosis was assayed by immunoblot analysis of cell lysates with an antibody to cleaved PARP. Immunoblotting for α-Tubulin was included as a loading control. FIG. 26C—T98G, GBM10, and GBM43 cells were treated with PPF (5 μM), lysed, and then immunoblotted to assess the activation of AKT and NF-κB. Immunoblotting for […] is included as a loading control.
# (§2) Referring now to FIGS. 26A, 26B, and 26C: Knockdown of TROY expression with shRNA decreases TMZ resistance in GBM cells in vitro (See Reference 42). […] Following combination therapy, cells were trypsinized, counted, and plated in a 6-well culture dish at densities of 100, 250, and 500 cells per well in triplicate. Cells were incubated for 12 days then fixed, stained with 0.5% crystal violet solution, and counted manually by blinded observers. […]
# EGFR = EGFR expression in glioma cells by Western blot; format: cell-based, Human; conditions: T98G, GBM10 and GBM43 cells, 5 μM PPF, 24 hours
# Description: (§3) FIGS. 24A-24D illustrate that PPF treatment decreases TROY expression in GBM cells. FIG. 24A—a Western blot analysis of TROY expression in T98G cells. Cells were treated with PPF at indicated concentrations for 6 hrs, lysed, and cell lysates immunoblotted with anti-TROY antibody. Immunoblotting of α-Tubulin in cell lysates is included as a loading control. FIG. 24B—Western blot analysis of TROY expression in T98G, GBM43, and GBM10 cells. Cells were treated with PPF at indicated concentrations for 24 hrs, lysed, and cell lysates immunoblotted with anti-TROY and α-Tubulin antibodies. FIG. 24C—Western Blot analysis of TROY expression in GBM10 and GBM43 primary glioma cells. Cells were treated with 5 μM PPF, lysed at the indicated time-points, and the lysates immunoblotted with an anti-TROY antibody. Immunoblotting of β-Actin in cell lysates is included as a loading control. […]
# (§4) Referring now to FIGS. 24A, 24B, 24C, and 24D: The inventors investigated if PPF could be utilized pharmacologically to decrease TROY expression in GBM cells. […] Cells were treated with increasing concentration of PPF, 1 to 20 μM, lysed, and TROY expression assessed by immunoblotting. […] Protein concentrations were determined using the BCA Assay (Pierce). […] Protein bands were detected using SuperSignal Chemiluminescent Substrate (Pierce) with a UVP BioSpectrum 500 Imaging System.
# [1] = clinical trials, cited from earlier work
# microglia = conditions: Reference 41; cited from earlier work
# NF-κB = NF-κB activation (phosphorylation) by immunoblot; format: cell-based, Human; conditions: T98G and GBM43 cells; PPF 5 μM
# Description: as §1, §2
# cleaved PARP = test: Apoptosis by immunoblot for cleaved PARP; format: cell-based, Human; conditions: T98G cells; PPF 5 μM, TMZ 250 μM
# Description: as §1, §2
# [2] = system: T98G, GBM10, and GBM43 cells; test: CellTiterGlo glioma cell cytotoxicity / viability assay; format: cell-based, Human; conditions: all three GBM cell lines; PPF 0.5 to 20 μM; 72 hours
# Description: (§5) FIG. 25A—T98G, GBM43, and GBM10 cells were incubated with increasing concentrations of PPF (0, 5, 50, and 500 μM). After 0, 48, 96 and 144 hours of treatment, cell were trypsinized and counted using an automated cell counter. FIG. 24B—GBM43, GBM10, and T98G glioma cells were treated with increasing doses of PPF (0.5, 1, 5, 10, and 20 μM) in triplicate. The Cell Titer Glo (Promega) reagent was used to measure survival. Raw values were normalized on a plate-by-plate basis such that 100% cell viability was equivalent to the mean of vehicle wells and 0% cell viability was equivalent to the mean of the MG132 positive control. The normalized data was used to assess viability of glioma cells after PPF treatment.
# (§6) Referring now to FIGS. 25A and 25B: To determine if PPF influences glioma cell proliferation, the inventors treated T98G, GBM10, and GBM43 cells with increasing concentrations of PPF and evaluated cell proliferation over the course of 144 hours. Briefly, 1.25×10^5 cells were seeded (n=3) in 12-well plates in 1 mL of DMEM supplemented with 10% FBS and allowed to attach at 37° for 16 hrs. […] After 0, 48, 96 and 144 hours of treatment, the cells were trypsinized and counted using the automated cell counter. […] Subsequently, 100 μL of CellTiterGlo® reagent was added to each well and luminescence was measured using Envision Reader. […]
# TROY [3] = conditions: Reference 41; cited from earlier work
# [4] = system: T98G, GBM10, and GBM43 cells; test: Glioma cell proliferation by automated cell counting; format: cell-based, Human; conditions: doses up to 500 μM, 0-144 hours
# Description: as §5, §6
# TNFR1 = TNFR1 expression in glioma cells by Western blot; format: cell-based, Human; conditions: T98G, GBM10 and GBM43 cells, 5 μM PPF, 24 hours
# Description: as §3, §4
# [5] = system: T98G, GBM10, and GBM43 cells; test: Lamellipodia formation and membrane ruffling (F-actin staining); format: cell-based, Human; conditions: 5 μM PPF 1 hour, then 10% FBS 5 min
# Description: FIGS. 28A and 28B depict that PPF suppresses GBM cell membrane ruffling. FIG. 28A—GBM43 cells were preincubated with 5 μM PPF or vehicle for 1 hour prior to 10% FBS stimulation for 5 min. After FBS stimulation, cells were fixed, permeabilized, and stained for F-actin. For each experimental condition, at least 12 images were taken randomly. Arrowhead indicates membrane ruffles. FIG. 28B—Graph depicts the average lamellipodia in T98G, GBM10, and GBM43 cells in the presence or absence of 10% FBS with or without 5 μM PPF as indicated. Lamellipodia were traced using Image J software.
# Referring now to FIGS. 28A and 28B: The inventors investigated lamellipodia formation and membrane ruffling. Briefly, glioma cells were plated onto 10-well glass slides pre-coated with 10 μg/ml laminin at the density of 3000 cells/well for 24 hours at 37° C. Subsequently, cells were serum starved for 16 hours. The cells were pre-incubated with 5 μM PPF or vehicle for 1 hour prior to 10% FBS stimulation for 5 min. After FBS stimulation, cells were fixed in 4% PFA, permeabilized with 0.1% Triton X-100, and incubated with Alexa Fluor® 555 Phalloidin (Invitrogen) to stain for F-actin. Slides were mounted with ProLong® reagent with DAPI and imaged using a Zeiss LSM 510 microscope. For each experimental condition, at least 12 images were randomly taken. Lamellipodia were traced using ImageJ software.
# AKT = AKT activation (phosphorylation) by immunoblot; format: cell-based, Human; conditions: T98G and GBM43 cells; PPF 5 μM
# Description: as §1, §2
# CNS-1 rat model = conditions: systemic PPF treatment, via modulation of microglia; cited from earlier work
# TROY [6] = test: TROY expression in GBM cells by immunoblotting (Western blot); format: cell-based, Human
# Description: FIGS. 24A-24D illustrate that PPF treatment decreases TROY expression in GBM cells. FIG. 24A—a Western blot analysis of TROY expression in T98G cells. Cells were treated with PPF at indicated concentrations for 6 hrs, lysed, and cell lysates immunoblotted with anti-TROY antibody. Immunoblotting of α-Tubulin in cell lysates is included as a loading control. FIG. 24B—Western blot analysis of TROY expression in T98G, GBM43, and GBM10 cells. Cells were treated with PPF at indicated concentrations for 24 hrs, lysed, and cell lysates immunoblotted with anti-TROY and α-Tubulin antibodies. FIG. 24C—Western Blot analysis of TROY expression in GBM10 and GBM43 primary glioma cells. Cells were treated with 5 μM PPF, lysed at the indicated time-points, and the lysates immunoblotted with an anti-TROY antibody. Immunoblotting of β-Actin in cell lysates is included as a loading control. FIG. 24D—Western Blot analysis of T98G, GBM10 and GBM43 glioma cells treated with 5 μM PPF for 24 hours. Lysates were immunoblotted with anti-TROY, anti-TNFR1, anti-EGFR, and β-Actin antibodies.
# Cell Culture Conditions: Human glioma cell line T98G (ATCC) was maintained in DMEM with high glucose (Invitrogen) supplemented with 10% heat-inactivated fetal bovine serum (FBS) (Invitrogen) in a 37° C., 5% CO2 atmosphere at constant humidity. The primary glioma patient derived xenograft (PDX) lines GBM10 and GBM43 were derived from patient surgical samples and maintained as flank xenografts in immunodeficient mice. GBM10 and GBM43 flank tumor were resected, brought to single cell suspension via mechanical dissociation, and maintained in DMEM+10% FBS for in vitro experiments. In the experiments with FBS stimulation, the cells were serum starved (DMEM+0.1% Bovine Serum Albumin (BSA)) for 16 hours before stimulation with 10% FBS in DMEM.
# Referring now to FIGS. 24A, 24B, 24C, and 24D: The inventors investigated if PPF could be utilized pharmacologically to decrease TROY expression in GBM cells. The long-term established cell line T98G was first utilized to test the efficacy of PPF. Cells were treated with increasing concentration of PPF, 1 to 20 μM, lysed, and TROY expression assessed by immunoblotting. Briefly, monolayers of cells were washed in phosphate-buffered saline (PBS) containing 1 mM phenylmethylsulfonylfluoride and 1 mM sodium orthovanadate and then lysed in 2×SDS sample buffer containing protease and phosphatase inhibitors. Protein concentrations were determined using the BCA Assay (Pierce). Thirty micrograms of total protein was loaded per lane and separated by SDS-PAGE. […] Protein bands were detected using SuperSignal Chemiluminescent Substrate (Pierce) with a UVP BioSpectrum 500 Imaging System.
# Rac1 = Rac1 activation assay after FBS stimulation; format: cell-based, Human; conditions: T98G cells; 5 μM PPF 1 hour, then 10% FBS 2-10 mins
# Description: (§7) FIGS. 27A and 27B depict that PPF suppresses GBM cell invasion and Rac1 activation. FIG. 27A—T98G, GBM10, and GBM43 glioma cells were treated with 5 μM PPF and invasion was assayed over 24 hours utilizing a Matrigel invasion assay, *p<0.05. FIG. 27B—T98G glioma cells were serum starved, pre-incubated with 5 μM PPF or vehicle for 1 hour, and then stimulated with 10% FBS for 2-10 mins. Cell lysates were harvested and equal concentrations of protein were assessed for Rac1 activation.
# (§8) Referring now to FIGS. 27A and 27B: The inventors next examined whether PPF inhibited TROY dependent glioma cell invasion. […] Briefly, 5.0×10^5 glioma cells were seeded in 100-mm diameter culture dishes and incubated overnight at 37° C. Subsequently, cells were serum starved for 16 hours at 37° C. Cells were then harvested, re-suspended in growth factor reduced Matrigel (Becton Dickinson) (1.0×10^5 cells/50 uL), added in triplicates to collagen-coated transwell chambers, and allowed to invade through Matrigel in presence of 10% FBS and/or 5 μM PPF. After incubation for 24 hours at 37° C., non-invaded cells were scrapped off the upper side of the membrane and cells invaded to the other side of the membrane were fixed with 4% paraformaldehyde (PFA) (Affymetrix) and stained with DAPI (Invitrogen). Nuclei of invaded cells were counted in five high power fields (HPF) with a 20× objective.
# [7] = system: T98G, GBM10, and GBM43 glioma cells; test: Matrigel invasion assay; format: cell-based, Human; conditions: 5 μM PPF, 24 hours, 10% FBS
# Description: as §7, §8
structure (smiles),measurement,setting,value
"CCCn1cnc2c1c(=O)n(CCCCC(C)=O)c(=O)n2C [PPF, 3-methyl-1-(5-oxohexyl)-7-propyl-3,7-dihydro-1H-purine-2,6-dione]","surviving fraction, PPF and 2Gy radiation compared to 2Gy radiation alone","T98G and GBM43 cells; GBM cells, 5 μM PPF 24 hours then 2 Gy",significantly decreased
same,"surviving fraction, PPF in combination with TMZ compared to TMZ alone","T98G and GBM43 cells; T98G and GBM43, 5 μM PPF 24 hours then 250 μM TMZ 24 hours",significantly decreased
same,EGFR expression,EGFR,did not affect
same,therapeutic efficacy,[1]; Alzheimer's disease and vascular dementia,therapeutic efficacy
same,side effect profile,[1]; Reference 39,minimal side effect profile
same,migration of microglia,microglia,inhibit
same,NF-κB phosphorylation,NF-κB,effectively decreased
same,"cleaved PARP, PPF and TMZ compared to TMZ alone",cleaved PARP,increase
same,cell viability,[2],negligible loss of cell viability
same,TROY expression in microglia,TROY [3],decreasing
same,proliferation of glioma cells,[4],did not affect
same,TNFR1 expression,TNFR1,did not affect
same,lamellipodia formation and membrane ruffling,[5],significantly decreased
same,AKT phosphorylation,AKT,effectively decreased
same,tumor growth,CNS-1 rat model,decreased
same,TROY expression over time,"TROY [6]; GBM10 and GBM43 cells, 5 μM PPF for varying lengths of time",decreased in a time-dependent manner
same,TROY expression,"TROY [6]; T98G cells, 1 μM PPF, 6 hrs",significant suppression
same,TROY expression,"TROY [6]; T98G cells, PPF 1 to 20 μM, 6 hrs",decreased in concentration dependent manner
same,TROY expression,"TROY [6]; T98G, GBM10 and GBM43 cells, 5 μM PPF, 24 hrs",effective in lowering TROY expression
same,Rac1 activation,Rac1,inhibited
same,glioma cell invasion,[7],significantly inhibited
